Here are results for one compound from PMC6384703, “Astilbin Inhibits the Activity of Sortase A from Streptococcus mutans” (Molecules, 2019).

In general, IC50 refers to the concentration needed to halve the response being measured. The low end stands for greater potency in that assay, the high end for weaker potency in that assay.

The assay deals with T1, sortase A (SrtA) (Streptococcus mutans, UniProt Q8CM62).
T1 construct: His-tagged recombinant SrtA from a 741 bp DNA fragment (pET28SmsrtA), S. mutans ATCC 25175
T1 sequence (Q8CM62 entry or part of it): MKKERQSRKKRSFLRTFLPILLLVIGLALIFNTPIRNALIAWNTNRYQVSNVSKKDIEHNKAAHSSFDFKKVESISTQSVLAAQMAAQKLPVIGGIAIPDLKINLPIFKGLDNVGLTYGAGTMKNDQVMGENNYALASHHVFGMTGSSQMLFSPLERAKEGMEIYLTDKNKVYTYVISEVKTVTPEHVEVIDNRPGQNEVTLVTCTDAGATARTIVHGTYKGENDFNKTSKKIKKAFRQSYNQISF
Put plainly: FRET assay with purified SrtA and fluorescent peptide Abz-LPATG-Dap(Dnp)-NH2; supported by mutants with reduced inhibition. Type of assay: biochemical.

Compound `C[C@@H]1O[C@@H](O[C@H]2C(=O)c3c(O)cc(O)cc3O[C@@H]2c2ccc(O)c(O)c2)[C@H](O)[C@H](O)[C@H]1O` [astilbin] had an IC50 of 16.7 µM.
